The assay has as its target T1, human vasopressin V1a receptor subtype (Homo sapiens, UniProt P37288).
T1 construct: host or cells: CHO cells (pZeoSV vector for the Thibonnier line)
The assay is described as follows: Vasopressin binding in Chinese Hamster Ovary cell membranes expressing human vasopressin V1a subtype receptors. To be noted: 100 nM, CHO cell membranes, [3H]Manning ligand, values without parentheses. A digest of the protocol: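 Membranes from CHO cells expressing human V1a receptor were incubated with [3H]Manning ligand (added as 20 μL of 8 nM) in pH 7.4 Tris buffer with MgCl2, BSA and protease inhibitors, 60 min at room temperature. Bound radioactivity was counted after filtration; values are percent inhibition at a stated concentration or IC50.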

T1 sequence (P37288 whole entry): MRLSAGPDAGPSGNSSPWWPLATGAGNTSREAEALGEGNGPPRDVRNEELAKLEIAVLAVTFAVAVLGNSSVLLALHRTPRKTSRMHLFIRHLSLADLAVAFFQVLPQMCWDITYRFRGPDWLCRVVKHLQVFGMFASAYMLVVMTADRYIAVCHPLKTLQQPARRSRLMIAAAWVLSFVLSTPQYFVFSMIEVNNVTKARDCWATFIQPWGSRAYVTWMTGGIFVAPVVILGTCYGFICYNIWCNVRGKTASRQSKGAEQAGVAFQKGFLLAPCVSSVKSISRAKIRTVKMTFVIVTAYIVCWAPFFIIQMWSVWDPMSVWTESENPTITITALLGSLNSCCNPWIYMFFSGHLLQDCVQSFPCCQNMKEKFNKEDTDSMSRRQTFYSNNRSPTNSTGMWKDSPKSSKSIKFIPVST

By inhibition is commonly meant the relative decrease from the control value, in per cent. Regarding `COc1cc(C(=O)N2Cc3ccc(C(=O)N4CCC(N5CCCCC5)CC4)n3Cc3ccccc32)ccc1-n1c(C)ccc1C` [Example 311, {10-[4-(2,5-Dimethyl-1H-pyrrol-1-yl)-3-methoxy-benzoyl]-10,11-dihydro-5H-pyrrolo[2,1-c][1,4]benzodiazepin-3-yl}[4-(1-piperidinyl)-1-piperidinyl]-methanone], the inhibition at 0.1 µM is -5%.

With `COc1cc(C(=O)N2Cc3ccc(C(=O)NCCCn4ccnc4)n3Cc3ccccc32)ccc1-n1c(C)ccc1C` [Example 312, 10-[4-(2,5-Dimethyl-1H-pyrrol-1-yl)-3-methoxybenzoyl]-N-[3-(1H-imidazol-1-yl)propyl]-10,11-dihydro-5H-pyrrolo[2,1-c][1,4]benzodiazepine-3-carboxamide], the inhibition at 0.1 µM came out at 7%.

For `COc1cc(C(=O)N2Cc3ccc(C(=O)N4CCC(N5CCCC5)CC4)n3Cc3ccccc32)ccc1-n1c(C)ccc1C` [Example 313, {10-[4-(2,5-Dimethyl-1H-pyrrol-1-yl)-3-methoxybenzoyl]-10,11-dihydro-5H-pyrrolo[2,1-c][1,4]benzodiazepin-3-yl}[4-(1-pyrrolidinyl)-1-piperidinyl]methanone], the inhibition at 0.1 µM came to 2%.

As to `COc1cc(C(=O)N2Cc3ccc(C(=O)NCCN4CCCCC4)n3Cc3ccccc32)ccc1-n1c(C)ccc1C` [Example 314, 10-[4-(2,5-Dimethyl-1H-pyrrol-1-yl)-3-methoxybenzoyl]-N-[2-(1-piperidinyl)ethyl]-10,11-dihydro-5H-pyrrolo[2,1-c][1,4]benzodiazepine-3-carboxamide], the inhibition at 0.1 µM worked out at 6%.

`COc1cc(C(=O)N2Cc3ccc(C(=O)NCCC4CCCN4C)n3Cc3ccccc32)ccc1-n1c(C)ccc1C` (centres unmarked) [Example 315, 10-[4-(2,5-Dimethyl-1H-pyrrol-1-yl)-3-methoxybenzoyl]-N-[2-(1-methyl-2-pyrrolidinyl)ethyl]-10,11-dihydro-5H-pyrrolo[2,1-c][1,4]benzodiazepine-3-carboxamide]: the inhibition at 0.1 µM was found to be 7%.

On to `COc1cc(C(=O)N2Cc3ccc(C(=O)N4CCN(CCN(C)C)CC4)n3Cc3ccccc32)ccc1-n1c(C)ccc1C` [Example 316, {4-[2-(Dimethylamino)ethyl]-1-piperazinyl}{10-[4-(2,5-dimethyl-1H-pyrrol-1-yl)-3-methoxybenzoyl]-10,11-dihydro-5H-pyrrolo[2,1-c][1,4]benzodiazepin-3-yl}methanone], for which the inhibition at 0.1 µM is 0%.

On to `COc1cc(C(=O)N2Cc3ccc(C(=O)N4CCN(CCN5CCOCC5)CC4)n3Cc3ccccc32)ccc1-n1c(C)ccc1C` [Example 317, {10-[4-(2,5-Dimethyl-1H-pyrrol-1-yl)-3-methoxybenzoyl]-10,11-dihydro-5H-pyrrolo[2,1-c][1,4]benzodiazepin-3-yl}{4-[2-(4-morpholinyl)ethyl]-1-piperazinyl}methanone], for which the inhibition at 0.1 µM was 10%.

On to `C=CCN1CCN(C(=O)c2ccc3n2Cc2ccccc2N(C(=O)c2ccc(-n4c(C)ccc4C)c(OC)c2)C3)CC1` [Example 318, (4-Allyl-1-piperazinyl){10-[4-(2,5-dimethyl-1H-pyrrol-1-yl)-3-methoxybenzoyl]-10,11-dihydro-5H-pyrrolo[2,1-c][1,4]benzodiazepin-3-yl}methanone], for which the inhibition at 0.1 µM is 5%.

With `COc1cc(C(=O)N2Cc3ccc(C(=O)N4CCN(C(C)C)CC4)n3Cc3ccccc32)ccc1-n1c(C)ccc1C` [Example 319, {10-[4-(2,5-Dimethyl-1H-pyrrol-1-yl)-3-methoxybenzoyl]-10,11-dihydro-5H-pyrrolo[2,1-c][1,4]benzodiazepin-3-yl}(4-isopropyl-1-piperazinyl)methanone], the inhibition at 0.1 µM stood at 9%.

On to `COc1cc(C(=O)N2Cc3ccc(C(=O)N4CCN(CCCN(C)C)CC4)n3Cc3ccccc32)ccc1-n1c(C)ccc1C` [Example 320, {4-[3-(Dimethylamino)propyl]-1-piperazinyl}{10-[4-(2,5-dimethyl-1H-pyrrol-1-yl)-3-methoxybenzoyl]-10,11-dihydro-5H-pyrrolo[2,1-c][1,4]benzodiazepin-3-yl}methanone], for which the inhibition at 0.1 µM is 4%.

On to `Cc1cc(C(=O)N2Cc3cccn3Cc3ncccc32)ccc1-c1ccccc1C(F)(F)F` [Example 323F, (2-Methyl-2′-trifluoromethyl-[1,1′-biphenyl]-4-yl)-(4H,10H-3a,5,9-triaza-benzo[f]azulen-9-yl)-methanone], for which the inhibition at 0.1 µM is 2%.

The values are drawn from patent US7109193B2, “Tricyclic diazepines tocolytic oxytocin receptor antagonists” (Wyeth, priority 2001, dated 2006).
